In US4469704A, “2,3-Butanediol diester derivatives, process for producing the same, and an antiulcer drug containing the same” (SS Pharmaceutical Co., Ltd., priority 1980, dated 1984):
Where two headings read alike, the source gives them in different places.

Assays:
[1] = tested on: ulcer; assay: Antiulcer action: inhibition of indomethacin-induced gastric ulcer (ulcer index) in rats; type: in vivo, Wister male rats; settings: Rattus norvegicus, 1 h before indomethacin (25 mg/kg orally), read-out: Inhibition ratio
Protocol: Wister male rats each weighing about 200 g were given, after fasting for 24 hours, orally 25 mg/kg of indomethacin suspended in 1% aq. solution of sodium carboxymethylcellulose. Five hours later, 1 ml of physiological saline containing 2% brilliant blue was injected intravenously on their tails, and 10 minutes later, they were slaughtered and their stomachs were removed. After fixation by injecting 12 ml of 1% formalin aq. solution, the stomachs were extended on a flat plate and the injured parts on the stomach was measured with slide calipers. The sum of the lengths in mm was regarded as the ulcer index.
The test compound was emulsified or suspended in physiological saline containing one drop of polysolvate 80, and this was given orally or subcutaneously on the back one hour before administration of indomethacin.
The ulcer inhibition ratio was obtained from the following formula.
Inhibition ratio (%)=A/B×100
A: (ulcer index of control group)--(ulcer index of test group given the test compound)
B: (ulcer index of control group)

[2] = tested on: ddy male mice; assay: Acute toxicity, intraperitoneal, 7 days observation; type: in vivo; settings: 1000 mg/kg intraperitoneally, groups of five ddy male mice
Protocol: (§1) ddy male mice, arranged in groups each consisting of five mice, were given intraperitoneally 1000 mg/kg of the test compounds Nos. 1-4, 8-10, 14-18, 21, 22, 24, 25, 28, 31, 34, 35, 37, 45, 46, 48, 54, 57, 60, 62, 64, 68, 70, and 71 (as shown in Table 1) dissolved in cotton seed oil.

[3] = as above; type: in vivo; settings: mouse, ip; ddy male mice, intraperitoneally, dissolved in cotton seed oil, observation for seven days
Protocol: as §1

[4] = tested on: tumor; settings: Japanese Patent Publication No. 36-13349; cited from earlier work

**Q.** Which inhibition in vivo at 200 mg/kg ([1]; sc, subcutaneously, 5 rats) does the source give for `CCCCCCCC(=O)OC(C)C(C)OC(=O)CCCCCCC` (centres unmarked) [Compound No. 1] here?
**A.** 92%

**Q.** With `CCCCCCCCC(=O)OC(C)C(C)OC(=O)CCCCCCCC` (centres unmarked) [Compound No. 2] as the molecule, how does the inhibition in vivo at 200 mg/kg ([1]; sc, subcutaneously, 5 rats) read?
**A.** 90%

**Q.** For `CCCCCCCCCC(=O)OC(C)C(C)OC(=O)CCCCCCCCC` (centres unmarked) [Compound No. 3], which inhibition in vivo at 200 mg/kg ([1]; sc, subcutaneously, 5 rats) is on record?
**A.** 50%

**Q.** With `CCCCCCCCCCC(=O)OC(C)C(C)OC(=O)CCCCCCCCCC` (centres unmarked) [Compound No. 4] as the molecule, how does the inhibition in vivo at 200 mg/kg ([1]; sc, subcutaneously, 5 rats) read?
**A.** 74%

**Q.** With `CCCCCCCCCCCCCC(=O)OC(C)C(C)OC(=O)CCCCCCCCCCCCC` (centres unmarked) [Compound No. 6] as the molecule, how does the inhibition in vivo at 200 mg/kg ([1]; sc, subcutaneously, 5 rats) read?
**A.** 57%

**Q.** For `CCCCCCCCCCCCCCCC(=O)OC(C)C(C)OC(=O)CCCCCCCCCCCCCCC` (centres unmarked) [Compound No. 7], which inhibition in vivo at 200 mg/kg ([1]; sc, subcutaneously, 5 rats) is on record?
**A.** 30%

**Q.** Which results are given for `CCCCCC(=O)OC(C)C(C)OC(=O)C=Cc1ccccc1` (centres unmarked) [Compound No. 22]?
**A.** survival / anomaly after seven days [2]: all the mice lived without any anomaly; LD50 at 168 h [3]: > 1000 mg/kg; inhibition in vivo at 200 mg/kg ([1]; sc, subcutaneously, 5 rats): 91%

**Q.** With `CCCCCCCCCC(=O)OC(C)C(C)OC(=O)C=Cc1ccccc1` (centres unmarked) [Compound No. 25] as the molecule, how does the “survival / anomaly after seven days” value [2] read?
**A.** all the mice lived without any anomaly

**Q.** What about the LD50 at 168 h [3] of the same molecule?
**A.** > 1000 mg/kg

**Q.** What about the inhibition in vivo at 200 mg/kg ([1]; sc, subcutaneously, 5 rats) of the same molecule?
**A.** 95%

**Q.** Which “survival / anomaly after seven days” value [2] does the source give for `CCCCCC(=O)OC(C)C(C)OC(=O)C=Cc1ccc(C)cc1` (centres unmarked) [Compound No. 31] here?
**A.** all the mice lived without any anomaly

**Q.** What about the LD50 at 168 h [3] of the same molecule?
**A.** > 1000 mg/kg

**Q.** And the inhibition in vivo at 200 mg/kg ([1]; sc, subcutaneously, 5 rats)?
**A.** 91%

**Q.** With `CCCCCCCCCCC(=O)OC(C)C(C)OC(=O)C=Cc1ccc(OC)cc1` (centres unmarked) [Compound No. 35] as the molecule, how does the “survival / anomaly after seven days” value [2] read?
**A.** all the mice lived without any anomaly

**Q.** What about the LD50 at 168 h [3] of the same molecule?
**A.** > 1000 mg/kg

**Q.** And the inhibition in vivo at 200 mg/kg ([1]; sc, subcutaneously, 5 rats)?
**A.** 77%

**Q.** For `CCCCCCCCCCC(=O)OC(C)C(C)OC(=O)C=Cc1cc(OC)c(OC)c(OC)c1` (centres unmarked) [Compound No. 40], which inhibition in vivo at 200 mg/kg ([1]; sc, subcutaneously, 5 rats) is on record?
**A.** 99%

**Q.** For `CCCCCC(=O)OC(C)C(C)OC(=O)c1cc(OC)c(OC)c(OC)c1` (centres unmarked) [Compound No. 62], which “survival / anomaly after seven days” value [2] is on record?
**A.** all the mice lived without any anomaly

**Q.** And the LD50 at 168 h [3]?
**A.** > 1000 mg/kg

**Q.** And the inhibition in vivo at 200 mg/kg ([1]; sc, subcutaneously, 5 rats)?
**A.** 50%

**Q.** What does the source list for `CCCCCCCCCCC(=O)OC(C)C(C)OC(=O)c1cc(OC)c(OC)c(OC)c1` (centres unmarked) [Compound No. 68]?
**A.** survival / anomaly after seven days [2]: all the mice lived without any anomaly; LD50 at 168 h [3]: > 1000 mg/kg; inhibition in vivo at 200 mg/kg ([1]; sc, subcutaneously, 5 rats): 89.3%

**Q.** Which “survival / anomaly after seven days” value [2] does the source give for `CCCCCCCCCCC(=O)OC(C)C(C)OC(=O)CCc1ccccc1` (centres unmarked) [Compound No. 70] here?
**A.** all the mice lived without any anomaly

**Q.** What about the LD50 at 168 h [3] of the same molecule?
**A.** > 1000 mg/kg

**Q.** What about the inhibition in vivo at 200 mg/kg ([1]; sc, subcutaneously, 5 rats) of the same molecule?
**A.** 45.9%

**Q.** For `CCCCCCCCCCC(=O)OC(C)C(C)OC(=O)COc1ccccc1` (centres unmarked) [Compound No. 71], which “survival / anomaly after seven days” value [2] is on record?
**A.** all the mice lived without any anomaly

**Q.** And the LD50 at 168 h [3]?
**A.** > 1000 mg/kg

**Q.** And the inhibition in vivo at 200 mg/kg ([1]; sc, subcutaneously, 5 rats)?
**A.** 59.2%

**Q.** With `CCCCCC=CCC=CCCCCCCCC(=O)OC(C)C(C)OC(=O)CCCCCCCC=CCC=CCCCCC` (centres unmarked) [compound 15] as the molecule, how does the inhibition in vivo at 200 mg/kg ([1]; sc, subcutaneously, 5 rats) read?
**A.** 47%

**Q.** Which inhibition in vivo at 200 mg/kg ([1]; sc, subcutaneously, 5 rats) does the source give for `CCC=CCC=CCC=CCCCCCCCC(=O)OC(C)C(C)OC(=O)CCCCCCCC=CCC=CCC=CCC` (centres unmarked) [compound 16] here?
**A.** 86%

**Q.** Which inhibition in vivo at 200 mg/kg ([1]; sc, subcutaneously, 5 rats) does the source give for `CCCCCCCCCCC(=O)OC(C)C(C)OC(=O)CCCCC` (centres unmarked) [compound 17] here?
**A.** 37%

**Q.** With `CCCCCCCC/C=C\CCCCCCCC(=O)OC(C)C(C)OC(=O)CCCCCCCCCC` (centres unmarked) [compound 21] as the molecule, how does the “survival / anomaly after seven days” value [2] read?
**A.** all the mice lived without any anomaly

**Q.** And the LD50 at 168 h [3]?
**A.** > 1000 mg/kg

**Q.** Which “survival / anomaly after seven days” value [2] does the source give for `CCCCCCCCC(=O)OC(C)C(C)OC(=O)C=Cc1ccccc1` (centres unmarked) [compound 24] here?
**A.** all the mice lived without any anomaly

**Q.** And the LD50 at 168 h [3]?
**A.** > 1000 mg/kg

**Q.** And the inhibition in vivo at 200 mg/kg ([1]; sc, subcutaneously, 5 rats)?
**A.** 90%

**Q.** Which “survival / anomaly after seven days” value [2] does the source give for `C=CCCCCCCCCC(=O)OC(C)C(C)OC(=O)C=Cc1ccccc1` (centres unmarked) [compound 28] here?
**A.** all the mice lived without any anomaly

**Q.** And the LD50 at 168 h [3]?
**A.** > 1000 mg/kg

**Q.** And the inhibition in vivo at 200 mg/kg ([1]; sc, subcutaneously, 5 rats)?
**A.** 62%

**Q.** Which results are given for `CCCCCC(=O)OC(C)C(C)OC(=O)C=Cc1ccc(OC)cc1` (centres unmarked) [compound 34]?
**A.** survival / anomaly after seven days [2]: all the mice lived without any anomaly; LD50 at 168 h [3]: > 1000 mg/kg; inhibition in vivo at 200 mg/kg ([1]; sc, subcutaneously, 5 rats): 75%

**Q.** Which results are given for `CCCCCC(=O)OC(C)C(C)OC(=O)C=Cc1ccc(Cl)cc1` (centres unmarked) [compound 37]?
**A.** survival / anomaly after seven days [2]: all the mice lived without any anomaly; LD50 at 168 h [3]: > 1000 mg/kg; inhibition in vivo at 200 mg/kg ([1]; sc, subcutaneously, 5 rats): 85%

**Q.** Which “survival / anomaly after seven days” value [2] does the source give for `CCCCCCCC(=O)OC(C)C(C)OC(=O)C(C#N)=Cc1ccccc1` (centres unmarked) [compound 45] here?
**A.** all the mice lived without any anomaly

**Q.** What about the LD50 at 168 h [3] of the same molecule?
**A.** > 1000 mg/kg

**Q.** What about the inhibition in vivo at 200 mg/kg ([1]; sc, subcutaneously, 5 rats) of the same molecule?
**A.** 84%

**Q.** Which “survival / anomaly after seven days” value [2] does the source give for `CCCCCCCCC(=O)OC(C)C(C)OC(=O)C(C#N)=Cc1ccccc1` (centres unmarked) [compound 46] here?
**A.** all the mice lived without any anomaly

**Q.** What about the LD50 at 168 h [3] of the same molecule?
**A.** > 1000 mg/kg

**Q.** What about the inhibition in vivo at 200 mg/kg ([1]; sc, subcutaneously, 5 rats) of the same molecule?
**A.** 56%

**Q.** With `CCCCCCCCCCC(=O)OC(C)C(C)OC(=O)C(C#N)=Cc1ccccc1` (centres unmarked) [compound 48] as the molecule, how does the “survival / anomaly after seven days” value [2] read?
**A.** all the mice lived without any anomaly

**Q.** And the LD50 at 168 h [3]?
**A.** > 1000 mg/kg

**Q.** And the inhibition in vivo at 200 mg/kg ([1]; po, orally, 4 rats)?
**A.** 84%

**Q.** And the inhibition in vivo at 300 mg/kg ([1]; sc, 300 mg/kg, subcutaneously, 5 rats)?
**A.** 96%

**Q.** What does the source list for `CCCCCC(=O)OC(C)C(C)OC(=O)C(C)=Cc1ccccc1` (centres unmarked) [compound 54]?
**A.** survival / anomaly after seven days [2]: all the mice lived without any anomaly; LD50 at 168 h [3]: > 1000 mg/kg; inhibition in vivo at 200 mg/kg ([1]; sc, subcutaneously, 5 rats): 87%

**Q.** With `CC(=Cc1ccccc1)C(=O)OC(C)C(C)OC(=O)C(C)=Cc1ccccc1` (centres unmarked) [compound 57] as the molecule, how does the “survival / anomaly after seven days” value [2] read?
**A.** all the mice lived without any anomaly

**Q.** And the LD50 at 168 h [3]?
**A.** > 1000 mg/kg

**Q.** What about the inhibition in vivo at 200 mg/kg ([1]; sc, subcutaneously, 5 rats) of the same molecule?
**A.** 80%

**Q.** For `CCCCCC(=O)OC(C)C(C)OC(=O)c1ccc(OC)cc1` (centres unmarked) [compound 60], which “survival / anomaly after seven days” value [2] is on record?
**A.** all the mice lived without any anomaly

**Q.** And the LD50 at 168 h [3]?
**A.** > 1000 mg/kg

**Q.** And the inhibition in vivo at 200 mg/kg ([1]; sc, subcutaneously, 5 rats)?
**A.** 41.4%

**Q.** Which “survival / anomaly after seven days” value [2] does the source give for `CCCCCCCCCCC(=O)OC(C)C(C)OC(=O)c1ccccc1` (centres unmarked) [compound 64] here?
**A.** all the mice lived without any anomaly

**Q.** What about the LD50 at 168 h [3] of the same molecule?
**A.** > 1000 mg/kg

**Q.** What about the inhibition in vivo at 200 mg/kg ([1]; sc, subcutaneously, 5 rats) of the same molecule?
**A.** 41.3%

**Q.** With coixenolide as the molecule, how does the antitumor effect [4] read?
**A.** has an antitumor effect
